Assay results from publication PMC6767236, “Selective Cannabinoid 2 Receptor Agonists as Potential Therapeutic Drugs for the Treatment of Endotoxin-Induced Uveitis” (Molecules, 2019).

Assays:
[1] = Plasma protein binding (equilibrium dialysis), mouse plasma; assay type: in vitro ADME; conditions: C57, pH 7.4, read-out: Plasma Protein Binding: FREE Fraction mouse
Method: Pooled and frozen plasma from selected species were obtained from commercial suppliers […]
(human […] and mouse […]3-C57; BioreclamationIV, NY, USA). Teflon […]
equilibrium dialysis plates (96-well, 150 μL, half-cell capacity) and cellulose membranes (12–14 kDa molecular weight cut-off) were purchased from HT-Dialysis (Gales Ferry, Connecticut). Both biological matrix and phosphate buffer pH were adjusted to 7.4 on the day of the experiment. The reference substance was diazepam.
The determination of unbound compound was performed using a 96-well format equilibrium dialysis device with a molecular weight cut-off membrane of 12 to 14 kDa. […]
At equilibrium, the unbound drug concentration in the biological matrix compartment of the equilibrium dialysis apparatus is the same as the concentration of the compound in the buffer compartment. Thus, the percent unbound fraction was be calculated by determining the compound concentrations in the buffer and matrix compartments after dialysis as follows: % fraction unbound = 100 × buffer concentration after dialysis/matrix concentration after dialysis. […]
P-glycoprotein (permeability-glycoprotein (P-gp), also known as multidrug resistance protein 1) is the most studied and best characterized drug transporter. […] The effect of P-gp was measured by expressing the efflux ratio of the unidirectional A > B and B > A Papp values. […]

[2] = test system: neutrophils from CB2R-/- mice; assay: Transwell neutrophil migration assay towards CXCL2, CB2R-/- neutrophils; assay type: cell-based, mouse; conditions: 10 nM CXCL2
Method: As described previously, mouse neutrophils were isolated from the bone marrow of mice. Mice were euthanized, femur and tibia were dissected and flushed with ice-cold 1× Hanks balanced salt solution (HBSS; supplemented with […], pH7.5, and 0.5 mM EDTA; Invitrogen) through a sterile filter (70 μm). The suspension was centrifuged at 300× g for 12 min at 4 °C. EasySep™ neutrophil enrichment kit ([…] Technologies Inc., Vancouver, BC, Canada) was used to isolate neutrophils according to the manufacturer’s instructions. The isolated neutrophils were then washed once and the pelleted cells were suspended in RPMI (Invitrogen) containing 1% heat-inactivated fetal bovine serum (FBS, Invitrogen) and used immediately for neutrophil migration experiments or processed for adoptive transfer. The murine neutrophil isolation protocol routinely yields cell suspensions that are >95% pure and viable, as determined by cresyl violet and trypan blue exclusion, respectively.
Neutrophil migration assays were performed using a Transwell migration assay. Isolated neutrophils (1 × 10^5 cells/100 μL) from WT or CB2R^-/- mice were incubated with vehicle (0.01% DMSO), or various concentrations of RO8671304 or RO6851228 at 37 °C, 5% CO2 for 30 min. […] The number of migrated neutrophils was then determined using ImageJ. […]

For `CC(C)(C)c1nc(N2CC[C@H](O)C2)c2nnn(Cc3nnnn3C3CC3)c2n1` [RO6871304, (3S)-1-{5-tert-butyl-3-[(1-cyclopropyl-1H-tetrazol-5-yl)methyl]-3H-[1,2, 3]triazolo[4,5-d]pyrimidin-7-yl}pyrrolidin-3-ol], the fraction unbound at 5 h, 1000 nM [1] was 0.031 and the “CXCL2-induced migration of CB2R-/- neutrophils” value [2] was “did not inhibit migration”.
